# Earlier results as cited in US20100331419A1, “Combination Therapies for the Treatment of Obesity” (priority 2009, published 2010).
# Settings: literature studies of weight loss medications
row,SMILES,weight loss of body weight for drug compared with placebo
1,CC(C)CC(N(C)C)C1(c2ccc(Cl)cc2)CCC1 (stereo not drawn) [sibutramine],about 5%
2,CCCCCCCCCCC[C@@H](C[C@@H]1OC(=O)[C@H]1CCCCCC)OC(=O)[C@H](CC(C)C)NC=O [orlistat],about 5%
3,CCN[C@@H](C)Cc1cccc(C(F)(F)F)c1 [dexfenfluramine],about 5%
